According to US11285135B2 (AMGEN INC., priority 2016, dated 2022):

target: GDP-bound protein (aa 1-169), containing both G12C and C118A amino acid substitutions (Homo sapiens, UniProt P01116, C118A/G12C); assay: Coupled Nucleotide Exchange Assay (SOS-mediated nucleotide exchange, AlphaScreen); assay type: biochemical; settings: 2 hours compound pre-incubation
Experimental: Coupled Nucleotide Exchange Assay: Purified GDP-bound […] protein (aa 1-169), containing both G12C and C118A amino acid substitutions and an N-terminal His-tag, was pre-incubated with a compound dose-response titration for 2 hours in assay buffer (25 mM HEPES pH 7.4, 10 mM MgCl2, and 0.01% Triton X-100). Following compound pre-incubation, purified SOS protein (aa 564-1049) and GTP (Roche 10106399001) were added to the assay wells and incubated for an additional hour. […] The assay plates were then read on a PerkinElmer EnVision Multilabel Reader, using AlphaScreen® technology, and data were analyzed using a 4-parameter logistic model to calculate IC50 values.

Sequence of GDP-bound protein (aa 1-169), containing both G12C and C118A amino acid substitutions (P01116 1-169 isoform P01116-2 G12C/C118A): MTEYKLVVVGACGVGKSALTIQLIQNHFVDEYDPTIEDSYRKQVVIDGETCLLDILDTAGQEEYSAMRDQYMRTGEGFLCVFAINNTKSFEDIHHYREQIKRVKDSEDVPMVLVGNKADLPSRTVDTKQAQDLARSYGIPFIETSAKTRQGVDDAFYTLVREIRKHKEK

Row | Structure (SMILES) | Coupled exchange IC50
1 | C=CC(=O)N[C@@H]1CN(c2snc3c(F)c(-c4cc(O)cc5ccccc45)c(Cl)cc23)[C@@H]1C (racemic) [Example 1-9, N-(1-(5-chloro-7-fluoro-6-(3-hydroxy-1-naphthalenyl)-2,1-benzothiazol-3-yl)-2-methyl-3-azetidinyl)-2-propenamide] | 5.92 µM
2 | C=CC(=O)N1CCN(c2snc3c(F)c(-c4cc(O)cc5ccccc45)c(Cl)cc23)CC1C(N)=O (racemic) [Example 1-12, 4-(5-chloro-7-fluoro-6-(3-hydroxy-1-naphthalenyl)-2,1-benzothiazol-3-yl)-1-(2-propenoyl)-2-piperazinecarboxamide] | 11.8 µM
3 | C=CC(=O)N1CCN(c2snc3nc(-c4c(F)cccc4OC)c(Cl)cc23)C(C)C1 (racemic) [Example 2-2, 1-(4-(5-chloro-6-(2-fluoro-6-methoxyphenyl)[1,2]thiazolo[3,4-b]pyridin-3-yl)-3-methyl-1-piperazinyl)-2-propen-1-one] | 12.7 µM
4 | C=CC(=O)N1CCN(c2nnc(C(C)c3ccccc3)c3cc(-c4c(O)cccc4F)c(Cl)cc23)CC1 (racemic) [Example 28, 1-(4-(7-chloro-6-(2-fluoro-6-hydroxyphenyl)-4-((1R)-1-phenylethyl)-1-phthalazinyl)-1-piperazinyl)-2-propen-1-one and 1-(4-(7-chloro-6-(2-fluoro-6-hydroxyphenyl)-4-((1S)-1-phenylethyl)-1-phthalazinyl)-1-piperazinyl)-2-propen-1-one] | 8.17 µM
5 | C=CC(=O)N1CCN(c2snc3nc(-c4c(C)ccc5[nH]ncc45)c(Cl)cc23)C(C)C1 (single isomer, unassigned) [Example 2-6-1, 1-((3S)-4-(5-chloro-6-(5-methyl-1H-indazol-4-yl)[1,2]thiazolo[3,4-b]pyridin-3-yl)-3-methyl-1-piperazinyl)-2-propen-1-one or 1-((3R)-4-(5-chloro-6-(5-methyl-1H-indazol-4-yl)[1,2]thiazolo[3,4-b]pyridin-3-yl)-3-methyl-1-piperazinyl)-2-propen-1-one] | 13.0 µM
6 | C=CC(=O)N1CCN(c2nnc(OC)c3cc(-c4c(O)cccc4F)c(Cl)cc23)CC1 (single isomer, unassigned) [Example 32, 2-(1-(4-Acryloyl-1-piperazinyl)-7-chloro-4-methoxy-6-phthalazinyl)-3-fluorophenol] | 28.6 µM
7 | C=CC(=O)N1CCN(c2nnc(OC)c3cc(Cl)c(-c4c(O)cccc4F)cc23)CC1 (single isomer, unassigned) [Example 33, 2-(4-(4-acryloyl-1-piperazinyl)-7-chloro-1-methoxy-6-phthalazinyl)-3-fluorophenol] | 103 µM
8 | C=CC(=O)N1CCN(c2snc3cc(-c4c(F)cccc4OC)c(Cl)cc23)CC1 [Example 1-5, 1-(4-(5-chloro-6-(2-fluoro-6-methoxyphenyl)-2,1-benzothiazol-3-yl)-1-piperazinyl)-2-propen-1-one] | 6.66 µM
9 | C=CC(=O)N1CCN(c2snc3c(F)c(-c4c(OC)ccc5ccccc45)c(Cl)cc23)CC1 [Example 1-13, 1-(4-(5-chloro-7-fluoro-6-(2-methoxy-1-naphthalenyl)-2,1-benzothiazol-3-yl)-1-piperazinyl)-2-propen-1-one] | >10 µM
10 | C=CC(=O)N1[C@@H]2CC[C@H]1CN(c1snc3c(F)c(-c4cc(O)cc5ccccc45)c(Cl)cc13)C2 [Example 1-17, 1-((1R,5S)-3-(5-chloro-7-fluoro-6-(3-hydroxy-1-naphthalenyl)-2,1-benzothiazol-3-yl)-3,8-diazabicyclo[3.2.1]octan-8-yl)-2-propen-1-one] | 63.5 µM
11 | C=CC(=O)N[C@@H]1CCN(c2snc3c(F)c(-c4cc(O)cc5ccccc45)c(Cl)cc23)C1 [Example 1-22, N-((3R)-1-(5-chloro-7-fluoro-6-(3-hydroxy-1-naphthalenyl)-2,1-benzothiazol-3-yl)-3-pyrrolidinyl)-2-propenamide] | >250 µM
12 | C=CC(=O)N[C@@H]1CCCN(c2snc3c(F)c(-c4cc(O)cc5ccccc45)c(Cl)cc23)C1 [Example 1-23, N-((3R)-1-(5-chloro-7-fluoro-6-(3-hydroxy-1-naphthalenyl)-2,1-benzothiazol-3-yl)-3-piperidinyl)-2-propenamide] | >250 µM
13 | C=CC(=O)N1CCN(c2snc3c(F)c(-c4cccc5ccc(=O)[nH]c45)c(Cl)cc23)CC1 [Example 3-2, 8-(5-chloro-7-fluoro-3-(4-(2-propenoyl)-1-piperazinyl)-2,1-benzothiazol-6-yl)-2(1H)-quinolinone] | >250 µM
14 | C=CC(=O)N1CCN(c2snc3c(F)c(-c4cccc5ccncc45)c(Cl)cc23)CC1 [Example 3-3, 1-(4-(5-chloro-7-fluoro-6-(8-isoquinolinyl)-2,1-benzothiazol-3-yl)-1-piperazinyl)-2-propen-1-one] | 11.3 µM
15 | C=CC(=O)N1CCN(c2snc3c(F)c(-c4cccc5[nH]c(=O)ccc45)c(Cl)cc23)CC1 [Example 3-4, 5-(5-chloro-7-fluoro-3-(4-(2-propenoyl)-1-piperazinyl)-2,1-benzothiazol-6-yl)-2(1H)-quinolinone] | >250 µM
16 | C=CC(=O)N1CCN(c2snc3c(F)c(-c4ccc(F)cc4F)c(Cl)cc23)CC1 [Example 3-7, 1-(4-(5-chloro-6-(2,4-difluorophenyl)-7-fluoro-2,1-benzothiazol-3-yl)-1-piperazinyl)-2-propen-1-one] | 6.98 µM
17 | C=CC(=O)N1CCN(c2snc3c(F)c(-c4cc(NC(C)=O)ccc4C)c(Cl)cc23)CC1 [Example 3-13, N-(3-(5-chloro-7-fluoro-3-(4-(2-propenoyl)-1-piperazinyl)-2,1-benzothiazol-6-yl)-4-methylphenyl)acetamide] | 6.49 µM
18 | C=CC(=O)N1CCN(c2snc3c(F)c(-c4cc(N)ccc4F)c(Cl)cc23)CC1 [Example 3-14, 1-(4-(6-(5-amino-2-fluorophenyl)-5-chloro-7-fluoro-2,1-benzothiazol-3-yl)-1-piperazinyl)-2-propen-1-one] | 5.64 µM
19 | C=CC(=O)N1CCN(c2snc3c(F)c(-c4cc(O)c(Cl)cc4Cl)c(Cl)cc23)CC1 [Example 3-17, 1-(4-(5-chloro-6-(2,4-dichloro-5-hydroxyphenyl)-7-fluoro-2,1-benzothiazol-3-yl)-1-piperazinyl)-2-propen-1-one] | 5.48 µM
20 | C=CC(=O)N1CCN(c2snc3c(F)c(-c4cnccc4C(C)C)c(Cl)cc23)CC1 [Example 3-21, 1-(4-(5-chloro-7-fluoro-6-(4-(2-propanyl)-3-pyridinyl)-2,1-benzothiazol-3-yl)-1-piperazinyl)-2-propen-1-one] | 32.0 µM
21 | C=CC(=O)N1CCN(c2snc3c(F)c(-c4cc(N)cc(C#N)c4)c(Cl)cc23)CC1 [Example 3-25, 3-amino-5-(5-chloro-7-fluoro-3-(4-(2-propenoyl)-1-piperazmyl)-2,1-benzothiazol-6-yl)benzonitrile] | >250 µM
22 | C=CC(=O)N1CC2(C1)CN(c1snc3c(F)c(Br)c(Cl)cc13)C2 [Example 4-2, 1-(6-(6-bromo-5-chloro-7-fluoro-2,1-benzothiazol-3-yl)-2,6-diazaspiro[3.3]hept-2-yl)-2-propen-1-one] | >250 µM
23 | C=CC(=O)N1CC2(C1)CN(c1snc3c(F)c(-c4cc(OC)cc5ccccc45)c(Cl)cc13)C2 [Example 4-3, 1-(6-(5-chloro-7-fluoro-6-(3-methoxy-1-naphthalenyl)-2,1-benzothiazol-3-yl)-2,6-diazaspiro[3,3]heptan-2-yl)-2-propen-1-one] | >250 µM
24 | C=CC(=O)NC1CN(c2snc3c(F)c(Br)c(Cl)cc23)C1 [Example 4-4, N-(1-(6-bromo-5-chloro-7-fluoro-2,1-benzothiazol-3-yl)-3-azetidinyl)-2-propenamide] | >250 µM
25 | C=CC(=O)NC1CN(c2snc3c(F)c(-c4cc(OC)cc5ccccc45)c(Cl)cc23)C1 [Example 4-5, N-(1-(5-chloro-7-fluoro-6-(3-methoxy-1-naphthalenyl)-2,1-benzothiazol-3-yl)-3-azetidinyl)-2-propenamide] | >250 µM
26 | C=CC(=O)N1CC(Nc2snc3c(F)c(Br)c(Cl)cc23)C1 [Example 4-7, 1-(3-((6-bromo-5-chloro-7-fluoro-2,1-benzothiazol-3-yl)amino)-1-azetidinyl)-2-propen-1-one] | 125 µM
27 | C=CC(=O)N1CCC[C@@H](Nc2snc3c(F)c(Br)c(Cl)cc23)C1 [Example 4-8, 1-((3R)-3-((6-bromo-5-chloro-7-fluoro-2,1-benzothiazol-3-yl)amino)-1-piperidinyl)-2-propen-1-one] | 177 µM
28 | C=CC(=O)N1CCC[C@@H](Nc2snc3c(F)c(-c4cc(O)cc5ccccc45)c(Cl)cc23)C1 [Example 4-9, 1-((3R)-3-((5-chloro-7-fluoro-6-(3-hydroxynaphthalen-1-yl)benzo[c]isothiazol-3-yl)amino)piperidin-1-yl)prop-2-en-1-one] | >250 µM
29 | C=CC(=O)NC1(C)CN(c2snc3c(F)c(-c4cc(O)cc5ccccc45)c(Cl)cc23)C1 [Example 5-2, N-(1-(5-chloro-7-fluoro-6-(3-hydroxy-1-naphthalenyl)-2,1-benzothiazol-3yl)-3-methyl-3-azetidinyl)-2-propenamide] | 14.2 µM
30 | C=CC(=O)NC1(CO)CN(c2snc3c(F)c(-c4cc(O)cc5ccccc45)c(Cl)cc23)C1 [Example 5-3, N-(1-(5-chloro-7-fluoro-6-(3-hydroxy-1-naphthalenyl)-2,1-benzothiazol-3-yl)-3-(hydroxymethyl)-3-azetidinyl)-2-propenamide] | 14.2 µM
